The values that follow come from ChEMBL document CHEMBL4002617, “Antifungal activity of substituted aurones” (Bioorg Med Chem Lett, 2017).

Common to all, as to assay type: functional
Assay [1] concerns Candida albicans. Description: Antifungal activity against Candida albicans ATCC 90028 at 100 uM after 24 hrs by PrestoBlue dye based microdilution broth assay relative to control. The settings on record: ATCC 90028, 24 h.
For another assay, the system named is Nakaseomyces glabratus. The assay is described as follows: Antifungal activity against Candida glabrata ATCC 66032 after 24 hrs by PrestoBlue dye based microdilution broth assay. The conditions noted are these: ATCC 66032, 24 h.
For a further assay, the system named is Candida tropicalis. The assay is described as follows: Antifungal activity against Candida tropicalis ATCC 750 after 24 hrs by PrestoBlue dye based microdilution broth assay. The settings on record: ATCC 750, 24 h.
The test system of assay [2] is Candida albicans. Description: Antibiofilm activity against Candida albicans ATCC 90028 intermediate phase biofilm at antifungal IC50 to IC99 after 24 hrs by calcofluor white dye based fluorescent microscopic analysis.
The test system of assay [3] is Candida albicans. The assay is described as follows: Antifungal activity against Candida albicans ATCC 90028 after 24 hrs by PrestoBlue dye based microdilution broth assay. The conditions noted are these: ATCC 90028, 24 h.
The test system of assay [4] is Candida albicans. The assay is described as follows: Antibiofilm activity against Candida albicans ATCC 90028 intermediate phase biofilm at 2 ug/ml after 24 hrs by calcofluor white dye based fluorescent microscopic analysis.
Assay [5] has as its system Candida albicans. The assay is described as follows: Antibiofilm activity against Candida albicans ATCC 90028 intermediate phase biofilm at 100 ug/ml after 24 hrs by calcofluor white dye based fluorescent microscopic analysis.
In assay [6] the test system is Candida albicans. The assay is described as follows: Antibiofilm activity against Candida albicans ATCC 90028 intermediate phase biofilm at 16 ug/ml after 24 hrs by calcofluor white dye based fluorescent microscopic analysis.

The structures appear in SMILES notation. The source made the active and inactive calls. The calls are words filed in the database; no cut-off is given here.

In turn, `O=C1/C(=C/c2cccs2)Oc2c1ccc(O)c2O` gave an inhibition at 100 µM in the assay with Candida albicans [1] of 26%.

With `O=C1/C(=C/c2ccc[nH]2)Oc2ccccc21`, in the assay with Candida albicans [1], the inhibition at 100 µM came out at 78.8%.

Take `O=C1/C(=C/c2ncc[nH]2)Oc2ccccc21`: testing at 100 µM in the assay with Candida albicans [1] gave an inhibition of 43.9%.

Take `O=C1/C(=C/c2ccccn2)Oc2ccccc21`: the IC50 with Nakaseomyces glabratus came to 10 µM; with Candida tropicalis, 12 µM; in the assay with Candida albicans [3], 18 µM. In the assay with Candida albicans [2], the outcome was inactive.

In the case of `C[C@@H]1[C@H](O)[C@@H](C)/C=C/C=C/C=C/C=C/C=C/C=C/C=C/[C@H](O[C@@H]2O[C@H](C)[C@@H](O)[C@H](N)[C@@H]2O)C[C@@H]2O[C@](O)(C[C@@H](O)C[C@@H](O)[C@H](O)CC[C@@H](O)C[C@@H](O)CC(=O)O[C@H]1C)C[C@H](O)[C@H]2C(=O)O`, the result in the assay with Candida albicans [4] was Active.

As to `COc1cc(Br)c(/C=C2\Oc3ccccc3C2=O)cc1OC`, 100 µM produced 12.5% inhibition in the assay on Candida albicans [1].

`COc1ccc(/C=C2\Oc3cc(O)ccc3C2=O)cc1O` returned an inhibition at 100 µM with Candida albicans [1] of 40%.

As to `COc1cc(/C=C2\Oc3ccccc3C2=O)ccc1O`, the inhibition at 100 µM in the assay on Candida albicans [1] is 11.2%.

`COc1ccc(/C=C2\Oc3ccccc3C2=O)cc1O`: at 100 µM the inhibition with Candida albicans [1] was 45.6%.

The compound `O=C1/C(=C/c2ccccc2O)Oc2ccccc21` displayed an inhibition at 100 µM in the assay on Candida albicans [1] of 1%.

In the assay with Candida albicans [1], `O=C1/C(=C/c2ccc[nH]2)Oc2c1ccc(O)c2O` displayed an inhibition at 100 µM of 27.5%.

Take `COc1cccc(/C=C2\Oc3ccccc3C2=O)c1O`: in the assay on Candida albicans [1], the inhibition at 100 µM is 16.7%.

As for `COc1ccc(/C=C2\Oc3ccccc3C2=O)cc1OC` [3',4'-DIMETHOXY-AURONE], the inhibition at 100 µM in the assay with Candida albicans [1] is 14.2%.

With `COc1ccc(/C=C2\Oc3c(ccc(O)c3O)C2=O)cc1O`, the IC50 with Nakaseomyces glabratus was found to be 11 µM; in the assay on Candida tropicalis, 10 µM; in the assay with Candida albicans [3], 16 µM. In addition, the result with Candida albicans [5] was Active. The outcome with Candida albicans [6] was inactive. Also, the inhibition at 100 µM in the assay on Candida albicans [1] amounted to 99.4%. This compound registered an IC99 in the assay with Candida albicans [3] of 100 µM.
